Experiments:
[1] = molecular target: T1, TadNaC6 (Trichoplax adhaerens, UniProt A0A5J6BVG3); test: whole-cell patch clamp, CHO-K1 cells; type: cell-based
T1 construct: gene ASIC6; full-length untagged channel from pTadNaC6-IR-EGFP (pIRES2-EGFP, EGFP expressed separately) in CHO-K1 cells; functional homomer, trimer by homology; cloning primers encode N-terminus MMAKGKIDH and C-terminus ADATNPDM-stop
T1 sequence (A0A5J6BVG3 1-492): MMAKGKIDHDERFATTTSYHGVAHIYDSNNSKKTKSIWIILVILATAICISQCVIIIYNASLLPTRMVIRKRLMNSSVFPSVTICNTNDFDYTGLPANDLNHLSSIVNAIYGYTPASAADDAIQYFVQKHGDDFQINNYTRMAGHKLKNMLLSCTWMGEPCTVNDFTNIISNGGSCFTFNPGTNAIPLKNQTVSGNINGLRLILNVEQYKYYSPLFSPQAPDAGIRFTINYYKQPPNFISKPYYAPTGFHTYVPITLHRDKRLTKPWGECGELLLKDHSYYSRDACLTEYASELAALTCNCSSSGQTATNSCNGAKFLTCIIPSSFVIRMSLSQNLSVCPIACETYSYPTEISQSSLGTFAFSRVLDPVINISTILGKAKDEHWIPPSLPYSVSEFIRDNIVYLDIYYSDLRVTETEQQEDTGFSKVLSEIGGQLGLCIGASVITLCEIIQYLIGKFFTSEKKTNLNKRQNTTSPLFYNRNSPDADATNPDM

[2] = molecular target: T1, TadNaC6; test: whole-cell patch clamp, CHO-K1 cells; type: cell-based; conditions: agonist (activation); perfusion from pH 5 to pH 7.5 (figure legend pH 7.4); 10 μM to 3 mM tested; no EC50

Row | SMILES | IC50 [1] [µM] | fold current at 3 mM relative to pH 9 without amiloride [2]
1 | N=C(N)c1ccc(/N=N/Nc2ccc(C(=N)N)cc2)cc1 [diminazene] | 578 ± 69.4 | 
2 | N=C(N)NC(=O)c1nc(Cl)c(N)nc1N [amiloride] |  | ~ 12 fold

Source: publication PMC6827283, “A Na^+ leak channel cloned from Trichoplax adhaerens extends extracellular pH and Ca^2+ sensing for the DEG/ENaC family close to the base of Metazoa” (The Journal of Biological Chemistry, 2019)
